Measurements published in the supplement of paper PMC9663587.

Columns and labels:
YKL-5-124 = compound: C=CC(=O)Nc1ccc(C(=O)Nc2[nH]nc3c2CN(C(=O)N[C@H](CN(C)C)c2ccccc2)C3(C)C)cc1 [YKL-5-124]; assay: GR value, 72 h; higher = faster growth (1 = untreated, <0 = killing);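 further: breast cancer and non-malignant breast epithelial lines, nine half-log doses, viable cells counted by Hoechst and LIVE/DEAD dye imaging versus time-zero plates and DMSO controls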
THZ531 = compound: CN(C)C/C=C/C(=O)Nc1ccc(C(=O)N2CCC[C@@H](Nc3ncc(Cl)c(-c4c[nH]c5ccccc45)n3)C2)cc1 [THZ531]; assay: as above
Flavopiridol [1] = compound: T1, CN1CC[C@H](c2c(O)cc(O)c3c(=O)cc(-c4ccccc4Cl)oc23)[C@H](O)C1 [Flavopiridol]; assay: as above
THZ1 = compound: CN(C)C/C=C/C(=O)Nc1ccc(C(=O)Nc2cccc(Nc3ncc(Cl)c(-c4c[nH]c5ccccc45)n3)c2)cc1 [THZ1]; assay: as above
BSJ-03-123 [2] = compound: T2, CC(=O)c1c(C)c2cnc(Nc3ccc(N4CCN(CCOCCOCCOCCNC(=O)COc5cccc6c5C(=O)N(C5CCC(=O)NC5=O)C6=O)CC4)cn3)nc2n(C2CCCC2)c1=O [BSJ-03-123]; assay: as above
[3] = compound: CCN1CCN(Cc2ccc(Nc3ncc(F)c(-c4cc(F)c5nc(C)n(C(C)C)c5c4)n3)nc2)CC1; assay: as above
[4] = compound: CCc1cnn2c(NCc3ccc[n+]([O-])c3)cc(N3CCCC[C@H]3CCO)nc12; assay: as above
LEE011/Ribociclib = compound: CN(C)C(=O)c1cc2cnc(Nc3ccc(N4CCNCC4)cn3)nc2n1C1CCCC1 [LEE011/Ribociclib]; assay: as above
Neratinib/HKI272 = compound: CCOc1cc2ncc(C#N)c(Nc3ccc(OCc4ccccn4)c(Cl)c3)c2cc1NC(=O)/C=C/CN(C)C [Neratinib/HKI272]
[5] = compound: CCC1=CN=CN=C1N2CCN(CC2)CC3=NC4=C(N3)C=C(C=C4)C(F)(F)F
Paclitaxel = compound: CC(=O)O[C@H]1C(=O)[C@@]2(C)[C@H]([C@H](OC(=O)c3ccccc3)[C@]3(O)C[C@H](OC(=O)[C@H](O)[C@@H](NC(=O)c4ccccc4)c4ccccc4)C(C)=C1C3(C)C)[C@]1(OC(C)=O)CO[C@@H]1C[C@@H]2O [Paclitaxel]
[6] = compound: CO[C@@H](C)Cn1c(=O)n(C)c2cnc3ccc(-c4cncc(C(C)(C)O)c4)cc3c21
R0-3306 = compound: C1=CC2=C(C=CC(=C2)C=C3C(=O)NC(=NCC4=CC=CS4)S3)N=C1 [R0-3306]
AZD5363 = compound: NC1(C(=O)N[C@@H](CCO)c2ccc(Cl)cc2)CCN(c2nc[nH]c3nccc2-3)CC1 [AZD5363]
BVD523 = compound: CC(C)Nc1cc(-c2c[nH]c(C(=O)N[C@H](CO)c3cccc(Cl)c3)c2)c(Cl)cn1 [BVD523]
Flavopiridol [7] = compound: T1, Flavopiridol
BSJ-03-123 [8] = compound: T2, BSJ-03-123
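Wherever GR50, 72 h is given: breast cancer and non-malignant breast epithelial cell lines, Deep Dye Drop or Dye Drop imaging, nine half-log doses, GR normalized to time-zero plates and DMSO-only controls.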

Question: Which GR value (YKL-5-124; 0.001 µM) does the source give for UACC812 here?
Answer: 0.609 GR

Question: And the GR value (YKL-5-124; 0.003162 µM)?
Answer: 0.318 GR

Question: And the GR value (YKL-5-124; 0.01 µM)?
Answer: 0.142 GR

Question: And the GR value (YKL-5-124; 0.03162 µM)?
Answer: -0.122 GR

Question: What about the GR value (YKL-5-124; 0.1 µM) of the same cell line?
Answer: -0.106 GR

Question: And the GR value (YKL-5-124; 0.3162 µM)?
Answer: -0.151 GR

Question: And the GR value (YKL-5-124; 1 µM)?
Answer: 0.0505 GR

Question: And the GR value (YKL-5-124; 3.162 µM)?
Answer: -0.246 GR

Question: And the GR value (YKL-5-124; 10 µM)?
Answer: -0.423 GR

Question: And the GR value (THZ531; 0.0001 µM)?
Answer: 0.819 GR

Question: And the GR value (THZ531; 0.0003162 µM)?
Answer: 1.04 GR

Question: And the GR value (THZ531; 0.001 µM)?
Answer: 0.807 GR

Question: What about the GR value (THZ531; 0.003162 µM) of the same cell line?
Answer: 0.754 GR

Question: What about the GR value (THZ531; 0.01 µM) of the same cell line?
Answer: 0.851 GR

Question: And the GR value (THZ531; 0.03162 µM)?
Answer: 0.958 GR

Question: And the GR value (THZ531; 0.1 µM)?
Answer: 0.942 GR

Question: What about the GR value (THZ531; 0.3162 µM) of the same cell line?
Answer: 1.17 GR

Question: And the GR value (THZ531; 1 µM)?
Answer: 0.547 GR

Question: What about the GR value (Flavopiridol [1]; 0.0001 µM) of the same cell line?
Answer: 0.797 GR

Question: What about the GR value (Flavopiridol [1]; 0.0003162 µM) of the same cell line?
Answer: 1.15 GR

Question: What about the GR value (Flavopiridol [1]; 0.001 µM) of the same cell line?
Answer: 0.734 GR

Question: And the GR value (Flavopiridol [1]; 0.003162 µM)?
Answer: 0.914 GR

Question: And the GR value (Flavopiridol [1]; 0.01 µM)?
Answer: 0.878 GR

Question: What about the GR value (Flavopiridol [1]; 0.03162 µM) of the same cell line?
Answer: 0.785 GR

Question: What about the GR value (Flavopiridol [1]; 0.1 µM) of the same cell line?
Answer: 0.457 GR

Question: What about the GR value (Flavopiridol [1]; 0.3162 µM) of the same cell line?
Answer: -0.332 GR

Question: What about the GR value (Flavopiridol [1]; 1 µM) of the same cell line?
Answer: -0.812 GR

Question: And the GR value (THZ1; 0.0001 µM)?
Answer: 1.23 GR

Question: What about the GR value (THZ1; 0.0003162 µM) of the same cell line?
Answer: 1.05 GR

Question: And the GR value (THZ1; 0.001 µM)?
Answer: 1.18 GR

Question: What about the GR value (THZ1; 0.003162 µM) of the same cell line?
Answer: 0.811 GR

Question: What about the GR value (THZ1; 0.01 µM) of the same cell line?
Answer: 1.1 GR

Question: What about the GR value (THZ1; 0.03162 µM) of the same cell line?
Answer: 0.842 GR

Question: What about the GR value (THZ1; 0.1 µM) of the same cell line?
Answer: 1.1 GR

Question: And the GR value (THZ1; 0.3162 µM)?
Answer: 1.01 GR

Question: What about the GR value (THZ1; 1 µM) of the same cell line?
Answer: -0.293 GR

Question: What about the GR value (BSJ-03-123 [2]; 0.001 µM) of the same cell line?
Answer: 0.833 GR

Question: And the GR value (BSJ-03-123 [2]; 0.003162 µM)?
Answer: 0.862 GR

Question: What about the GR value (BSJ-03-123 [2]; 0.01 µM) of the same cell line?
Answer: 0.699 GR

Question: What about the GR value (BSJ-03-123 [2]; 0.03162 µM) of the same cell line?
Answer: 0.711 GR

Question: And the GR value (BSJ-03-123 [2]; 0.1 µM)?
Answer: 0.74 GR

Question: And the GR value (BSJ-03-123 [2]; 0.3162 µM)?
Answer: 0.887 GR

Question: What about the GR value (BSJ-03-123 [2]; 1 µM) of the same cell line?
Answer: 0.48 GR

Question: What about the GR value (BSJ-03-123 [2]; 3.162 µM) of the same cell line?
Answer: 0.408 GR

Question: What about the GR value (BSJ-03-123 [2]; 10 µM) of the same cell line?
Answer: -0.328 GR

Question: And the GR value ([3]; 0.001 µM)?
Answer: 0.849 GR

Question: And the GR value ([3]; 0.003162 µM)?
Answer: 0.562 GR

Question: What about the GR value ([3]; 0.01 µM) of the same cell line?
Answer: 0.349 GR

Question: And the GR value ([3]; 0.03162 µM)?
Answer: -0.073 GR

Question: And the GR value ([3]; 0.1 µM)?
Answer: -0.212 GR

Question: And the GR value ([3]; 0.3162 µM)?
Answer: -0.252 GR

Question: What about the GR value ([3]; 1 µM) of the same cell line?
Answer: -0.319 GR

Question: And the GR value ([3]; 3.162 µM)?
Answer: -0.407 GR

Question: And the GR value ([3]; 10 µM)?
Answer: -0.565 GR

Question: What about the GR value ([4]; 0.0001 µM) of the same cell line?
Answer: 1.17 GR

Question: What about the GR value ([4]; 0.0003162 µM) of the same cell line?
Answer: 1.22 GR

Question: What about the GR value ([4]; 0.001 µM) of the same cell line?
Answer: 1.63 GR

Question: What about the GR value ([4]; 0.003162 µM) of the same cell line?
Answer: 1.63 GR

Question: And the GR value ([4]; 0.01 µM)?
Answer: 1.28 GR

Question: And the GR value ([4]; 0.03162 µM)?
Answer: -0.347 GR

Question: What about the GR value ([4]; 0.1 µM) of the same cell line?
Answer: -0.932 GR

Question: And the GR value ([4]; 0.3162 µM)?
Answer: -0.948 GR

Question: What about the GR value ([4]; 1 µM) of the same cell line?
Answer: -0.949 GR

Question: What about the GR value (LEE011/Ribociclib; 0.001 µM) of the same cell line?
Answer: 0.753 GR

Question: And the GR value (LEE011/Ribociclib; 0.003162 µM)?
Answer: 0.55 GR

Question: What about the GR value (LEE011/Ribociclib; 0.01 µM) of the same cell line?
Answer: 0.569 GR

Question: And the GR value (LEE011/Ribociclib; 0.03162 µM)?
Answer: 0.333 GR

Question: What about the GR value (LEE011/Ribociclib; 0.1 µM) of the same cell line?
Answer: 0.309 GR

Question: And the GR value (LEE011/Ribociclib; 0.3162 µM)?
Answer: 0.218 GR

Question: And the GR value (LEE011/Ribociclib; 1 µM)?
Answer: 0.148 GR

Question: And the GR value (LEE011/Ribociclib; 3.162 µM)?
Answer: 0.171 GR

Question: What about the GR value (LEE011/Ribociclib; 10 µM) of the same cell line?
Answer: 0.0704 GR

Question: What about the “GR50, 72 h” value (Neratinib/HKI272) of the same cell line?
Answer: 0.00313 µM

Question: And the “GR50, 72 h” value [5]?
Answer: 2.01 µM

Question: What about the “GR50, 72 h” value (Paclitaxel) of the same cell line?
Answer: 0.00042 µM

Question: What about the “GR50, 72 h” value [6] of the same cell line?
Answer: < 0.001 µM

Question: And the “GR50, 72 h” value (R0-3306)?
Answer: 5.09 µM

Question: What about the “GR50, 72 h” value (AZD5363) of the same cell line?
Answer: 8.81 µM

Question: What about the “GR50, 72 h” value (BVD523) of the same cell line?
Answer: 1.32 µM

Question: And the “GR50, 72 h” value (Flavopiridol [7])?
Answer: 0.0813 µM

Question: And the “GR50, 72 h” value (BSJ-03-123 [8])?
Answer: 0.836 µM
